Test results reported in patent publication US8975249B2, “Heterocyclic compounds and uses thereof” (Celgene Avilomics Research, Inc., priority 2010, dated 2015).
Read-outs that look alike come from different tables or passages of the source.

What was measured:
EGFR (WT) = EGFR (WT) (Homo sapiens (Human), UniProt P00533); assay: Omnia biochemical assay, EGFR-WT active enzyme; conditions: [EGFR-WT]=5 nM, [ATP]=15 uM, 30 min pre-incubation
Description: Kinase reactions were started with the addition of 45 μL of the ATP/Tyr-Sox peptide substrate mix and monitored every 71 seconds for 60 minutes at λex360/λem485 in a Synergy^4 plate reader from BioTek (Winooski, Vt.).
The compound numbers correspond to the compound numbers in Table 1.

WT EGFR (A431 cells) = WT EGFR (A431 cells) (Homo sapiens (Human), UniProt P00533); assay: Phospho-EGFR signaling immunoblot in A431 cells (WT EGFR); format: cell-based; conditions: 1 hr treatment, EGF stimulated, phospho-EGFR (Y1068)
Description: (§1) A431 human epidermoid carcinoma, H1975 human NSCLC and HCC827 human NSCLC adenocarcinoma cells were obtained from the American Type Culture Center (Manassas, Va.). A431 cells were grown in DMEM (Invitrogen, Carlsbad, Calif.) supplemented with 10% FBS (HyClone, South Logan, Utah) and 1% Penicillin-Streptomycin (P/S, Lonza, Walkersville, Md.).
(§2) All primary antibodies were obtained from Cell Signaling (Danvers, Mass.) and used at 1:1000. Secondary antibodies were used at 1:10,000. Goat anti-mouse IgG IRDye 800CW antibody was obtained from LiCor Biosciences (Lincoln, Nebr.) and goat anti-rabbit IgG Alexa Fluor 680 was obtained from Invitrogen.
(§3) Cells were grown in 12-well plates (Corning, Coring, N.Y.) to 90% confluence and then incubated in low-serum (0.1% FBS) media for 16-18 hr. […] A431 cells were then stimulated with 50 ng/ml EGF (Peprotech, Rocky Hill, N.J.) for 15 min. After treatment, cell monolayers were washed with cold PBS (Invitrogen) and immediately lysed by scrapping into 60 uL cold Cell Extraction Buffer (Invitrogen) supplemented with Complete Protease inhibitors (Roche, Indianapolis, Ind.) and PhosphoSTOP (Roche) phosphatase inhibitors.
(§4) Phospho-protein signals were quantitated using Odyssey Infrared Imaging (Li-Cor Biosciences).
(§5) To assess phosphor-EGFR signaling, blots were probed with rabbit anti-Phospho-EGFR (Y1068) and mouse total anti-EGFR antibodies. Phospho-EGFR signal was normalized to total EGFR expression for each sample. […] Normalized data was fitted using a sigmoidal curve analysis program (Graph Pad Prism version 5) with variable Hill slope to determine the EC50 values.
(§6) The compound numbers recited in Table 4 correspond to the compound numbers in Table 1.

[1] = biological target: EGFR double mutation L858R/T790M (H1975 cells) (Homo sapiens (Human), UniProt P00533, L858R/T790M); assay: Phospho-EGFR signaling immunoblot in H1975 cells; format: cell-based; conditions: for EC50: H1975 cells, 1 hr treatment, phospho-EGFR (Y1068); for Ratio WT/mutant (H1975): signaling EC50 WT EGFR / H1975
Description: as §1, §2, §3, §4, §5, §6

H1975 tumor = H1975 tumor in vivo study; conditions: female nu/nu mice, H1975 subcutaneous, intraperitoneal 25 mg/kg daily for 21 days, determined at 15 days
Description: H1975 Tumor In Vivo Study
Female nu/nu mice were implanted with 1×10^7 H1975 tumor cells in 50% Matrigel subcutaneously (0.2 ml injection volume) in the flank. Tumor measurements were recorded three times per week. Tumors were pair matched when they reached an average size of 100-150 mg. Group size was 10 mice. Test compound was administered intraperitoneal, 25 mg/kg daily for 21 days. % Tumor inhibition values were determined at 15 days, the time at which the control group reached a maximum tumor volume. Tumor volume was followed until tumors reached 1500 mm^3 or 60 days.

[2] = test system: H1975 cells (EGFR L858R/T790M); assay: Cell proliferation (CellTiter Glo), H1975 cells
Description: (§7) Cells were plated in Growth Media supplemented with 5% FBS and 1% P/S at a density of 3,000 cells per well in 96 well tissue culture plates (Corning). […] Growth inhibition (GI50) values were determined by Graph Pad Prism.

[3] = test system: HCC827 cells (EGFR delE746-A750); assay: Cell proliferation (CellTiter Glo), HCC827 cells
Description: as §7

[4] = biological target: EGFR Deletion/T790M Mutation (H1975 cells) (Homo sapiens (Human), UniProt P00533, L858R/T790M); assay: Washout experiment in H1975 cells (pEGFR after compound removal); format: cell-based; conditions: 500 nM for 1 hr, at 24 h after compound removal
Description: Washout Experiment in H1975 Cells Containing EGFR Deletion/T790M Mutation
Cells were plated in Growth Media supplemented with 10% FBS and 1% P/S at a density of 2.0×10^5 cells per well in 12 well tissue culture plates. Cells were allowed to settle down for 4 hrs and then maintained in low-serum (0.1% FBS) media overnight.
The following morning the media was removed and the cells were treated with 500 nM test compound in low-serum media for 1 hr. The cells were washed free of compound 2× with PBS (Invitrogen). One set of cells were immediately lysed as indicated above as the 0 hr time point. The remaining cells were incubated with complete RPMI-1640 growth media (10% FBS) for 1, 3, 6 and 24 hr. For the first 1 hr, cells were washed 2× with PBS every 30 min. DMSO (0.5%) controls were collected at the 0, 3, 6 and 24 hr time points.

A431 cells (WT EGFR) = assay: Cell proliferation (CellTiter Glo), A431 cells
Description: as §7

[5] = biological target: EGFR delE746-A750 deletion mutation (HCC827 cells) (Homo sapiens (Human), UniProt P00533, DEL746-750); assay: Phospho-EGFR signaling immunoblot in HCC827 cells; format: cell-based; conditions: for EC50: HCC827 cells, 1 hr treatment, phospho-EGFR (Y1068); for Ratio WT/mutant (HCC827): signaling EC50 WT EGFR / HCC827
Description: as §1, §2, §3, §4, §5, §6

[6] = proliferation GI50 WT EGFR / H1975
[7] = proliferation GI50 WT EGFR / HCC827

Row | Molecule | IC50 (EGFR (WT)) | EC50 (WT EGFR (A431 cells)) | EC50 [1] | Ratio WT/mutant (H1975) [1] | % Tumor inhibition (H1975 tumor) | Ratio WT/mutant (H1975) [2, 6] | Ratio WT/mutant (HCC827) [3, 7] | activity restored by new protein synthesis [4] | GI50 (A431 cells (WT EGFR); Homo sapiens, A-431, 72 h, read-out: WT EGFR GI50 (nM)) | Ratio WT/mutant (H1975) [2] | GI50 ([2]; Homo sapiens, NCI-H1975, 72 h, read-out: H1975 GI50 (nM)) | Ratio WT/mutant (HCC827) [3] | GI50 ([3]; Homo sapiens, HCC827, 72 h, read-out: HCC827 GI50 (nM)) | EC50 [5] | Ratio WT/mutant (HCC827) [5] | GI50 (A431 cells (WT EGFR); read-out: WT EGFR GI50, A431 cells, 72 hr) | GI50 ([2]; read-out: H1975 GI50, H1975 cells, 72 hr) | GI50 ([3]; read-out: HCC827 GI50, HCC827 cells, 72 hr)
1 | C=CC(=O)Nc1cccc(Oc2nc(Nc3ccc(N4CCOCC4)cc3OC)ncc2C(F)(F)F)c1 [Compound I-1, N-(3-(2-(2-methoxy-4-morpholinophenylamino)-5-(trifluoromethyl)pyrimidin-4-yloxy)phenyl)acrylamide] | 30 to 100 nM | > 1000 nM | 10 to 100 nM | >50 | >66% | >15 | >15 | – | – | – | – | – | – | – | – | – | – | –
2 | C=CC(=O)Nc1cccc(Nc2nc(Nc3ccc(N4CCOCC4)cc3OC)ncc2C(F)(F)F)c1 [Compound I-2, N-(3-(2-(2-methoxy-4-morpholinophenylamino)-5-(trifluoromethyl)pyrimidin-4-ylamino)phenyl)acrylamide] | 10 to 30 nM | > 1000 nM | 10 to 100 nM | >50 | >66% | >20 | >40 | 40-60% | – | – | – | – | – | – | – | – | – | –
3 | C=CC(=O)Nc1cccc(Nc2nc(Nc3ccc(N4CCN(C(C)=O)CC4)cc3OC)ncc2C(F)(F)F)c1 [Compound I-4, N-(3-(2-(4-(4-acetylpiperazin-1-yl)-2-methoxyphenylamino)-5-(trifluoromethyl)pyrimidin-4-ylamino)phenyl)acrylamide] | – | – | – | – | >66% | – | – | 40-60% | – | – | – | – | – | – | – | – | – | –
4 | C=CC(=O)Nc1cccc(Oc2nc(Nc3ccc(N4CCOCC4)cc3OC)ncc2Cl)c1 [Compound I-5, N-(3-(5-chloro-2-(2-methoxy-4-morpholinophenylamino)pyrimidin-4-yloxy)phenyl)acrylamide] | 10 to 30 nM | > 1000 nM | 10 to 100 nM | >30 | >33% | >5 | >20 | – | – | – | – | – | – | – | – | – | – | –
5 | C=CC(=O)Nc1cccc(Oc2nc(Nc3ccc(N4CCN(C(C)=O)CC4)cc3OC)ncc2C(F)(F)F)c1 [Compound I-10, N-(3-(2-(4-(4-acetylpiperazin-1-yl)-2-methoxyphenylamino)-5-(trifluoromethyl)pyrimidin-4-yloxy)phenyl)acrylamide] | 1 to 10 nM | – | – | – | – | – | – | – | > 1000 nM | >1 | 500 to 1000 nM | >20 | 100 to 500 nM | – | – | – | – | –
6 | C=CC(=O)Nc1cccc(Nc2nc(Nc3ccc(N4CCOCC4)cc3OC(F)F)ncc2C(F)(F)F)c1 [Compound I-14, N-(3-(2-(2-(difluoromethoxy)-4-morpholinophenylamino)-5-(trifluoromethyl)pyrimidin-4-ylamino)phenyl)acrylamide] | 10 to 30 nM | 500 to 1000 nM | 10 to 100 nM | >15 | – | >5 | >10 | – | – | – | – | – | – | 10 to 100 nM | >15 | – | – | –
7 | C=CC(=O)Nc1cccc(Nc2nc(Nc3ccc(N4CCN(S(C)(=O)=O)CC4)cc3OC)ncc2C(F)(F)F)c1 [Compound I-17, N-(3-(2-(2-methoxy-4-(4-(methylsulfonyl)piperazin-1-yl)phenylamino)-5-(trifluoromethyl)pyrimidin-4-ylamino)phenyl)acrylamide] | 10 to 30 nM | > 1000 nM | 10 to 100 nM | >30 | – | >10 | >15 | – | – | – | – | – | – | 100 to 500 nM | >5 | – | – | –
8 | C=CC(=O)Nc1cccc(Oc2nc(Nc3ccc(N4CCN(C(=O)OC(C)(C)C)CC4)cc3OC)ncc2Cl)c1 [Compound I-46, tert-butyl 4-(4-(4-(3-acrylamidophenoxy)-5-chloropyrimidin-2-ylamino)-3-methoxyphenyl)piperazine-1-carboxylate] | 100 to 300 nM | > 1000 nM | 100 to 500 nM | >10 | – | – | – | – | – | >1 | – | >10 | – | < 10 nM | >50 | – | – | –
9 | N-(3-(5-chloro-2-(2-methoxy-4-morpholinophenylamino)pyrimidin-4-ylamino)phenyl)acrylamide [Compound I-15] | 30 to 100 nM | – | – | – | – | >1 | >10 | – | – | – | – | – | – | – | – | > 1000 nM | 500 to 1000 nM | 100 to 500 nM
